Reference: US20210045385A1, “PYRIDAZINONE-SUBSTITUTED KETOXIMES AS HERBICIDES” (FMC Corporation, priority 2018, published 2021)

Columns and labels:
Assay type in all cases: in vivo
[1] = test system: barnyardgrass (Echinochloa crus-galli); assay: Test C postemergence, visual plant response rating
Outline: (§1)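 Visual injury on a 0 (no effect) to 100 (complete control) scale versus untreated controls, scored approximately 10 d after treatment under greenhouse conditions. Treatments used surfactant-containing non-phytotoxic solvent formulations, sprayed onto loam–sand soil preemergence or onto one- to two-leaf plants 2–10 cm tall postemergence.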

[2] = test system: foxtail, giant (giant foxtail, Setaria faberi); assay: Test C postemergence, visual plant response rating
Outline: as §1

[3] = test system: ragweed (common ragweed, Ambrosia artemisiifolia); assay: Test C postemergence, visual plant response rating
Outline: as §1

[4] = test system: galium (catchweed bedstraw, Galium aparine); assay: Test C postemergence, visual plant response rating
Outline: as §1

[5] = test system: kochia (Bassia scoparia); assay: Test C postemergence, visual plant response rating
Outline: as §1

[6] = test system: Italian ryegrass (Lolium mutiflorum); assay: Test C postemergence, visual plant response rating
Outline: as §1

[7] = test system: pigweed (Amaranthus retroflexus); assay: Test C postemergence, visual plant response rating
Outline: as §1

[8] = test system: wheat (Triticum aestivum); assay: Test C postemergence, visual plant response rating
Outline: as §1

[9] = test system: blackgrass (Alopecurus myosuroides); assay: Test C postemergence, visual plant response rating
Outline: as §1

[10] = test system: corn (Zea mays); assay: Test C postemergence, visual plant response rating
Outline: as §1

[11] = test system: barnyardgrass (Echinochloa crus-galli); assay: Test C preemergence, visual plant response rating; conditions: Test C, 0 is no effect, 100 is complete control
Outline: as §1

[12] = test system: foxtail, giant (giant foxtail, Setaria faberi); assay: Test C preemergence, visual plant response rating; conditions: Test C, 0 is no effect, 100 is complete control
Outline: as §1

[13] = test system: ragweed (common ragweed, Ambrosia artemisiifolia); assay: Test C preemergence, visual plant response rating; conditions: Test C, 0 is no effect, 100 is complete control
Outline: as §1

[14] = test system: kochia (Bassia scoparia); assay: Test C preemergence, visual plant response rating; conditions: Test C, 0 is no effect, 100 is complete control
Outline: as §1

[15] = test system: Italian ryegrass (Lolium mutiflorum); assay: Test C preemergence, visual plant response rating; conditions: Test C, 0 is no effect, 100 is complete control
Outline: as §1

[16] = test system: pigweed (Amaranthus retroflexus); assay: Test C preemergence, visual plant response rating; conditions: Test C, 0 is no effect, 100 is complete control
Outline: as §1

[17] = test system: barnyardgrass (Echinochloa crus-galli); assay: Test D flooded paddy test, visual plant response rating; conditions: 250 g ai/ha, scale 0 to 100 (0 no effect, 100 complete control), 13 to 15 d
Outline: (§2)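 Visual injury scores, 0 (no effect) to 100 (complete control), were assigned after 13 to 15 d in the greenhouse by comparison with controls. Test compounds had been added to paddy water covering soil by 3 cm at the 2-leaf stage.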

[18] = test system: duck salad (Heteranthera limosa); assay: as above; conditions: 250 g ai/ha, scale 0 to 100 (0 no effect, 100 complete control), 13 to 15 d
Outline: as §2

[19] = test system: sedge umbrella (small-flower umbrella sedge, Cyperus difformis); assay: as above; conditions: 250 g ai/ha, scale 0 to 100 (0 no effect, 100 complete control), 13 to 15 d
Outline: as §2

[20] = test system: rice (Oryza sativa); assay: as above; conditions: 250 g ai/ha, scale 0 to 100 (0 no effect, 100 complete control), 13 to 15 d
Outline: as §2

[21] = Test C, postemergence, 125 g ai/ha

SMILES	Barnyardgrass plant response rating (0 to 100 scale) ([1]; Postemergence, 31 g ai/ha)	Barnyardgrass plant response rating (0 to 100 scale) [1, 21]	Foxtail, Giant plant response rating (0 to 100 scale) ([2]; Postemergence, 31 g ai/ha)	Foxtail, Giant plant response rating (0 to 100 scale) [2, 21]	Ragweed plant response rating (0 to 100 scale) ([3]; Postemergence, 31 g ai/ha)	Ragweed plant response rating (0 to 100 scale) [3, 21]	Galium plant response rating (0 to 100 scale) ([4]; Postemergence, 31 g ai/ha)	Galium plant response rating (0 to 100 scale) [4, 21]	Kochia plant response rating (0 to 100 scale) ([5]; Postemergence, 31 g ai/ha)	Kochia plant response rating (0 to 100 scale) [5, 21]	Ryegrass, Italian plant response rating (0 to 100 scale) ([6]; Postemergence, 31 g ai/ha)	Ryegrass, Italian plant response rating (0 to 100 scale) [6, 21]	Pigweed plant response rating (0 to 100 scale) ([7]; Postemergence, 31 g ai/ha)	Pigweed plant response rating (0 to 100 scale) [7, 21]	Wheat plant response rating (0 to 100 scale) ([8]; Postemergence, 31 g ai/ha)	Wheat plant response rating (0 to 100 scale) [8, 21]	Blackgrass plant response rating (0 to 100 scale) ([9]; Postemergence, 31 g ai/ha)	Blackgrass plant response rating (0 to 100 scale) [9, 21]	Corn plant response rating (0 to 100 scale) ([10]; Postemergence, 31 g ai/ha)	Corn plant response rating (0 to 100 scale) [10, 21]	also measured
CON=C(c1cccc(OC)c1)c1c(O)c(C)nn(C)c1=O [Compound 204]	0	0	0	0	0	0	10	40	0	10	0	0	0	10	0	0	0	0	0	0	Barnyardgrass plant response rating (0 to 100 scale) ([11]; 31 g ai/ha): 0; Barnyardgrass plant response rating (0 to 100 scale) ([11]; 125 g ai/ha): 0; Foxtail, Giant plant response rating (0 to 100 scale) ([12]; 31 g ai/ha): 0; Foxtail, Giant plant response rating (0 to 100 scale) ([12]; 125 g ai/ha): 0; Ragweed plant response rating (0 to 100 scale) ([13]; 31 g ai/ha): 0; Ragweed plant response rating (0 to 100 scale) ([13]; 125 g ai/ha): 0; Kochia plant response rating (0 to 100 scale) ([14]; 31 g ai/ha): 0; Kochia plant response rating (0 to 100 scale) ([14]; 125 g ai/ha): 0; Ryegrass, Italian plant response rating (0 to 100 scale) ([15]; 31 g ai/ha): 0; Ryegrass, Italian plant response rating (0 to 100 scale) ([15]; 125 g ai/ha): 0; Pigweed plant response rating (0 to 100 scale) ([16]; 31 g ai/ha): 0; Pigweed plant response rating (0 to 100 scale) ([16]; 125 g ai/ha): 0; Plant response rating, Barnyardgrass (Flood) [17]: 0; Plant response rating, Ducksalad (Flood) [18]: 0; Plant response rating, Sedge, Umbrella (Flood) [19]: 0; Plant response rating, Rice (Flood) [20]: 0
CO/N=C(\c1c(O)c(Cl)nn(C)c1=O)c1ccc(F)c2ccccc12 [Compound 208]	30	60	20	60	100	100	90	100	50	70	30	80	30	40	0	0	0	30	0	10	Barnyardgrass plant response rating (0 to 100 scale) ([11]; 31 g ai/ha): 0; Barnyardgrass plant response rating (0 to 100 scale) ([11]; 125 g ai/ha): 80; Foxtail, Giant plant response rating (0 to 100 scale) ([12]; 31 g ai/ha): 50; Foxtail, Giant plant response rating (0 to 100 scale) ([12]; 125 g ai/ha): 90; Ragweed plant response rating (0 to 100 scale) ([13]; 31 g ai/ha): 60; Ragweed plant response rating (0 to 100 scale) ([13]; 125 g ai/ha): 100; Kochia plant response rating (0 to 100 scale) ([14]; 31 g ai/ha): 0; Kochia plant response rating (0 to 100 scale) ([14]; 125 g ai/ha): 20; Ryegrass, Italian plant response rating (0 to 100 scale) ([15]; 31 g ai/ha): 10; Ryegrass, Italian plant response rating (0 to 100 scale) ([15]; 125 g ai/ha): 70; Pigweed plant response rating (0 to 100 scale) ([16]; 31 g ai/ha): 40; Pigweed plant response rating (0 to 100 scale) ([16]; 125 g ai/ha): 100; Plant response rating, Barnyardgrass (Flood) [17]: 0; Plant response rating, Ducksalad (Flood) [18]: 0; Plant response rating, Sedge, Umbrella (Flood) [19]: 0; Plant response rating, Rice (Flood) [20]: 0
CC(C)O/N=C(/c1c(O)c(Cl)nn(C)c1=O)c1ccc(F)c2ccccc12 [Compound 209]	50	80	70	90	90	90	90	100	10	40	10	40	50	90	0	0	10	30	10	20	Barnyardgrass plant response rating (0 to 100 scale) ([11]; 31 g ai/ha): 50; Barnyardgrass plant response rating (0 to 100 scale) ([11]; 125 g ai/ha): 80; Foxtail, Giant plant response rating (0 to 100 scale) ([12]; 31 g ai/ha): 80; Foxtail, Giant plant response rating (0 to 100 scale) ([12]; 125 g ai/ha): 100; Ragweed plant response rating (0 to 100 scale) ([13]; 31 g ai/ha): 90; Ragweed plant response rating (0 to 100 scale) ([13]; 125 g ai/ha): 90; Kochia plant response rating (0 to 100 scale) ([14]; 31 g ai/ha): 0; Kochia plant response rating (0 to 100 scale) ([14]; 125 g ai/ha): 40; Ryegrass, Italian plant response rating (0 to 100 scale) ([15]; 31 g ai/ha): 10; Ryegrass, Italian plant response rating (0 to 100 scale) ([15]; 125 g ai/ha): 30; Pigweed plant response rating (0 to 100 scale) ([16]; 31 g ai/ha): 20; Pigweed plant response rating (0 to 100 scale) ([16]; 125 g ai/ha): 100; Plant response rating, Barnyardgrass (Flood) [17]: 0; Plant response rating, Ducksalad (Flood) [18]: 50; Plant response rating, Sedge, Umbrella (Flood) [19]: 80; Plant response rating, Rice (Flood) [20]: 0
CC(C)O/N=C(\c1c(O)c(Cl)nn(C)c1=O)c1ccc(F)c2ccccc12 [Compound 210]	40	70	70	90	90	90	90	100	30	40	0	20	40	100	0	0	0	30	20	20	Barnyardgrass plant response rating (0 to 100 scale) ([11]; 31 g ai/ha): 30; Barnyardgrass plant response rating (0 to 100 scale) ([11]; 125 g ai/ha): 80; Foxtail, Giant plant response rating (0 to 100 scale) ([12]; 31 g ai/ha): 90; Foxtail, Giant plant response rating (0 to 100 scale) ([12]; 125 g ai/ha): 100; Ragweed plant response rating (0 to 100 scale) ([13]; 31 g ai/ha): 0; Ragweed plant response rating (0 to 100 scale) ([13]; 125 g ai/ha): 90; Kochia plant response rating (0 to 100 scale) ([14]; 31 g ai/ha): 0; Kochia plant response rating (0 to 100 scale) ([14]; 125 g ai/ha): 0; Ryegrass, Italian plant response rating (0 to 100 scale) ([15]; 31 g ai/ha): 0; Ryegrass, Italian plant response rating (0 to 100 scale) ([15]; 125 g ai/ha): 20; Pigweed plant response rating (0 to 100 scale) ([16]; 31 g ai/ha): 30; Pigweed plant response rating (0 to 100 scale) ([16]; 125 g ai/ha): 100; Plant response rating, Barnyardgrass (Flood) [17]: 0; Plant response rating, Ducksalad (Flood) [18]: 45; Plant response rating, Sedge, Umbrella (Flood) [19]: 90; Plant response rating, Rice (Flood) [20]: 0
